In article PMC7997032, “Organic synthesis and anti-influenza A virus activity of cyclobakuchiols A, B, C, and D” (PLoS ONE, 2021):
Values joined by “and” are separate entries in the source; they are usually repeats but may differ in a detail not shown here. Equal entries are not always repeated.

System: canine interferon-β (Ifn-β)
Test: RT-qPCR of Ifn-β mRNA in MDCK cells with or without A/PR/8/34 virus
Assay type: cell-based
Settings: for MDCK IFN-b mRNA, ave / MDCK IFN-b mRNA, individual replicates: 12.5uM, relative to virus - DMSO; for MDCK IFN-b mRNA, ave: ave of #1-3 exp; for MDCK IFN-b mRNA, individual replicates: replicates 1-3 of #1, #2, #3 exp

C=C[C@@](C)(/C=C/c1ccc(O)cc1)CCC=C(C)C [(+)-(S)-bakuchiol, reference compound]
virus-induced upregulation of Ifn-β mRNA: significantly reduced | MDCK IFN-b mRNA, ave (virus +): 3.367 | MDCK IFN-b mRNA, individual replicates (virus +): 2.6311 and 8.162 and 4.8 and 5.795 and 3.073 and 1.349 and 1.382 and 0.9842 and 2.128 | MDCK IFN-b mRNA, ave (virus -): 1.794 | MDCK IFN-b mRNA, individual replicates (virus -): 0.2606 and 0.6947 and 2.008 and 8.353 and 0.6874 and 0.5651 and 1.697 and 0.7342 and 1.151
